For 16 molecules, IC50 results are on record in USRE47193E1, “Selectively substituted quinoline compounds” (EISAI R&D MANAGEMENT CO., LTD., priority 2013, dated 2019).

This experiment deals with T1, human TLR8 (Homo sapiens, UniProt Q9NR97).
T1 construct: host or cells: HEK-293, then stably transfected with pNiFty2(NF-kappaB)-luciferase reporter
T1 sequence (Q9NR97 27-1041): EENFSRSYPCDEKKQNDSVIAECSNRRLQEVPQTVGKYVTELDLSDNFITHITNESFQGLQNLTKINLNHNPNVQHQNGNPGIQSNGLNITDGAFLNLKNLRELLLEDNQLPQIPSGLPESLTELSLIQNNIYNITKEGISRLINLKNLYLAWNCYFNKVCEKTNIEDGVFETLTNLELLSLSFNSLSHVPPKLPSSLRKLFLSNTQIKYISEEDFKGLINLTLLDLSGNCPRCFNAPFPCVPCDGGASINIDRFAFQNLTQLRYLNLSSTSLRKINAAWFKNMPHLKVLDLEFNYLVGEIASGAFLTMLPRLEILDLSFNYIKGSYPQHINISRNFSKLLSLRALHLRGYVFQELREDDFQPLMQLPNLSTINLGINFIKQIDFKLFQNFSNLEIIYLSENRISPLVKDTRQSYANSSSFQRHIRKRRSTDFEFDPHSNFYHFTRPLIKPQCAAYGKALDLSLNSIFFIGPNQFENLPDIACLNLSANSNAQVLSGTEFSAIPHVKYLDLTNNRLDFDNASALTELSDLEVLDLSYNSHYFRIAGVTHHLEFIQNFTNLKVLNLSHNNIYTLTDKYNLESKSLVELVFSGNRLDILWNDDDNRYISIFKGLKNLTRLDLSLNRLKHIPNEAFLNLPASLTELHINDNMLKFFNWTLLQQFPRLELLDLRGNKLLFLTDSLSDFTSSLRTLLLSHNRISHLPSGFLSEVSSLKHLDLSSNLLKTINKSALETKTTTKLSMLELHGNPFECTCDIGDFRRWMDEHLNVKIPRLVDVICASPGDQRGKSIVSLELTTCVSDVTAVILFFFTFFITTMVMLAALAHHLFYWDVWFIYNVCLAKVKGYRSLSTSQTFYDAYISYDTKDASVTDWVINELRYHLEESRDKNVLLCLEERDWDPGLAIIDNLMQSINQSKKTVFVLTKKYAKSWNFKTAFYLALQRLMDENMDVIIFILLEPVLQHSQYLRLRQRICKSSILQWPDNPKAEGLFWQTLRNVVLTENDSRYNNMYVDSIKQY
Description: HEK-293 human TLR8 NF-kappaB luciferase reporter assay (CL097). Format: cell-based. In general terms: Reporter assays use an easily measured gene product as a stand-in for the process of interest.

The mark [1] stands for this setting: HEK-293 assay format, read-out: HEK/hTLR8 IC50.

Values joined by “and” are separate entries in the source; they are usually repeats but may differ in a detail not shown here. Identical values can stand only once. Like-named read-outs stand apart in the source and are kept apart here.

As for `C[C@@H]1CN(c2ccc(C#N)c3ncccc23)C[C@H](CNC2CCCC2)O1` [ER-887145], under setting [1], the IC50 was 105 nM.

On to `C[C@@H]1CN(c2ccc(C#N)c3ncccc23)C[C@H](CN2CCC(N3CCCCC3)CC2)O1` [ER-887927, 5-((2S,6R)-2-([1,4′-bipiperidin]-1′-ylmethyl)-6-methylmorpholino)quinoline-8-carbonitrile], for which, under setting [1], the IC50 came to 0.5 nM.

For the molecule `CC1CNC(=O)CN1C[C@H]1CN(c2ccc(C#N)c3ncccc23)C[C@@H](C)O1` (stereo partly drawn) [ER-887722], the IC50 under setting [1] amounted to 21 nM.

On to `C[C@@H]1CN(C[C@H]2CN(c3ccc(C#N)c4ncccc34)C[C@@H](C)O2)CCN1` [ER-887269], for which the IC50 under setting [1] stood at 3.2 nM.

For the molecule `C[C@@H]1CN(c2ccc(C#N)c3ncccc23)C[C@H](C)O1` [ER-878952], the IC50 under setting [1] was 6 nM and 19.5 nM.

On to `C[C@@H]1CN(c2ccc(C#N)c3ncccc23)C[C@H](CN2CCC(O)CC2)O1` [ER-886953], for which, under setting [1], the IC50 came to 66 nM.

On to `CCN(CCO)CCCC(C)Nc1ccnc2cc(Cl)ccc12` (stereo not drawn) [HCQ, hydroxychloroquine, reference compound], for which the IC50 reads like this: (HEK-hTLR8, CL097 12 ug/ml, average of three tests, read-out: IC50 average) greater than 10000 nM; (HEK-hTLR8, CL097 12 ug/ml, individual tests 1-3, read-out: IC50) greater than 10000 nM.

Turning to `C[C@@H]1CN(c2ccc(C#N)c3ncccc23)C[C@H](C(=O)N[C@H]2CNC[C@H]2F)O1.Cl` [ER-899742, (2R,6R)-4-(8-cyanoquinolin-5-yl)-N-[(3S,4R)-4-fluoropyrrolidin-3-yl]-6-methylmorpholine-2-carboxamide hydrochloride], the IC50 is, setting by setting: (IC50, HEK-hTLR8, CL097 12 ug/ml, individual tests 1-3) 2 nM and 2.5 nM and 2.6 nM; (IC50 average, HEK-hTLR8, CL097 12 ug/ml, average of three tests) 2.4 nM.

In the case of `C[C@@H]1CN(c2ccc(C#N)c3ncccc23)C[C@H](CN2CC[C@H](O)C2)O1` [ER-886820], under setting [1], the IC50 amounted to 78 nM.

In the case of `CC[C@H]1CN(C[C@H]2CN(c3ccc(C#N)c4ncccc34)C[C@@H](C)O2)CCN1` [ER-890963], the IC50 under setting [1] was 2.8 nM.

`C[C@@H]1CN(c2ccc(C#N)c3ncccc23)C[C@H](CN2CCN(C)CC2)O1` [ER-887723]: under setting [1], the IC50 turned out to be 9 nM.

For the molecule `CCCN1CCN(C[C@H]2CN(c3ccc(C#N)c4ncccc34)C[C@@H](C)O2)CC1` [ER-887724], the IC50 under setting [1] amounted to 6 nM.

Turning to `CC1CN(c2ccc(C#N)c3ncccc23)CC(CN2CCCC2CO)O1` (stereo not drawn) [ER-886814], the IC50 under setting [1] was 60 nM.

`C[C@@H]1CN(c2ccc(C#N)c3ncccc23)C[C@H](CO)O1` [ER-885493, 5-((2R,6R)-2-(hydroxymethyl)-6-methylmorpholino)quinoline-8-carbonitrile]: the IC50 under setting [1] was 101 nM.

For the molecule `C[C@@H]1CN(c2ccc(C#N)c3ncccc23)C[C@H](CN2CCNCC2)O1` [ER-887253], the IC50 under setting [1] was determined as 2 nM.

Take `CC1CN(c2ccc(C#N)c3ncccc23)CC(CN2CCC(N(C)C)CC2)O1` (stereo not drawn) [ER-887725]: under setting [1], the IC50 was determined as 1 nM.
